≈ marks a conversion by molar mass, not a printed value. Where two headings read alike, the source gives them in different places.
Experiments:
[1] = In vitro release of vancomycin from PUR; type: physicochemical
Method: Methods: rhBMP-2 was purchased from R&D systems. V-FB was obtained by precipitation of vancomycin solution at pH 8. […] In vitro release experiment was carried out in PBS, with medium refreshed as indicated. […] The scaffolds were then tested in critical sized rat femoral segmental defects, contaminated or non-contaminated. After 4 or 8 weeks, the defects are harvested, and both the new bone formation and infection control were examined.

[2] = Solubility of tobramycin in polyester polyol; type: physicochemical
Method: Tobramycin was added as a powder to the hardener prior to reaction with the triisocyanate resin in order to minimize its reactivity with the reactive two-component polyurethane. Tobramycin's five primary amino groups otherwise cause it to react rapidly with isocyanates when in solution. Tobramycin is insoluble in polyester polyol, the primary component in the hardener; consequently the tobramycin remains in the solid phase during the chemical reaction. A loading of 8 wt-% was chosen to approximate the level of tobramycin delivered from the equivalent volume of PMMA cement beads, but higher loading can be achieved if necessary.

S. aureus = settings: cited from earlier work
[3] = In vitro release of BSA-FITC / protein from PUR scaffolds; type: physicochemical; settings: added in solution, after 21 days
Method: A scaffold of the present invention was prepared by one-shot reactive liquid molding of HDIt and hardener containing polyester triol and PEG. BSA-FITC was added to the hardener component prior to mixing with HDIt. Considering that proteins incorporate groups with active hydrogens (e.g., hydroxyl groups and amines), there is a concern that the protein will react with the polyisocyanate, resulting in damage to the protein. […] To protect the protein from reacting with the polyisocyanate, BSA-FITC was lyophilized with a varying amount of glucose excipient and then added to the hardener as a powder. […] The glucose dosage plays an important role in the release profile; the presence of 0.5% and 2% glucose increased the total amount released after 21 days and increased the initial burst release. Further increasing the glucose dosage to 5% decreased the total release.
To evaluate the effect of encapsulation protein into PLGA particles on the release kinetics from PUR scaffold, small pieces of PUR scaffold incorporated with BSA-FITC powder or PLGA particles encapsulated with BSA-FITC were incubated in a-MEM containing 1% BSA under 37° C. the medium was changed as indicated in FIG. 18. The amount of BSA-FITC was determined by emission fluorescence at 530 nm after excitation at 485 nm.

MC3T3 cells = assay: In vitro cell proliferation assay of released PDGF-BB; type: cell-based; settings: released PDGF-BB vs fresh PDGF-BB
Method: To assess the in vitro bioactivity of released PDGF-BB from the polyurethane scaffolds, releasates at day 1, 3, and 7 from PUR/PDGF-BB and PUR/G-PDGF-BB scaffolds were lyophilized and reconstituted to the same PDGF-BB concentration. After MC3T3 cells attached to the 96-well plates, the serum content in the cell culture medium was decreased from 10% to 2.5%. At the same time, the reconstituted releasates were added at dosages of 3 and 10 ng/ml. Fresh PDGF-BB (i.e., not released from the scaffolds but used directly as received from the supplier) was the positive control. Cell numbers were measured at time points of 24 and 72 h by staining the DNA and measuring fluorescence on a plate reader. […] At the 72 h time point, a dose-dependent effect was observed, although it was not evident at the 24 h time point.

[4] = In vitro release of PDGF-BB (I-125 labeling and ELISA); type: physicochemical; settings: for total release of PDGF-BB: PUR scaffold with 2 wt % glucose
Method: To enhance the release of PDGF-BB, 2 wt % glucose was added to the scaffolds. The release profile was monitored by two methods. In the first approach, PDGF-BB was radiolabeled with iodine-125 (I-125) and a gamma reading machine was used to monitor the release kinetics. Release of PDGF-BB was also measured by ELISA assay using the liquid releasates. Both methods yield similar release profiles (FIG. 13), characterized by a burst release on the first day. The ELISA assay detected a lower total release (around 65%, compared with around 85% for I-125 labeling method), which is possibly due to denaturation of some fraction of the released protein which cannot be detected by its antibody.
To mitigate the burst release, another strategy was adopted to achieve controlled release of PDGF-BB from polyurethane scaffolds. Heparin was bound to the surface of microparticles made from amine-terminated PLGA (average size 50 μm) using standard carbodiimide techniques. PDGF-BB was then loaded onto the particle surface through heparin binding. […] To enhance the stability of the protein on the PLGA particle surface, the particles were granulated by mixing the particles with a small amount of gelatin solution followed by forcing through a 48-mesh sieve to form 110-μm granules. The granules were then added to the hardener component before reacting with isocyanate to form PUR/G-PDGF-BB polyurethane scaffolds. The PDGF-BB release from the granules is similar to that of particles when detected by I-125 labeling (FIG. 14A), but lower when measured by ELISA (FIG. 14B).

With `CN[C@H](CC(C)C)C(=O)N[C@H]1C(=O)N[C@@H](CC(N)=O)C(=O)N[C@H]2C(=O)N[C@H]3C(=O)N[C@H](C(=O)N[C@H](C(=O)O)c4cc(O)cc(O)c4-c4cc3ccc4O)[C@H](O)c3ccc(c(Cl)c3)Oc3cc2cc(c3O[C@@H]2O[C@H](CO)[C@@H](O)[C@H](O)[C@H]2O[C@H]2C[C@](C)(N)[C@H](O)[C@H](C)O2)Oc2ccc(cc2Cl)[C@H]1O` [V-FB, vancomycin free base] the “duration of vancomycin release above the MIC for S. aureus” value [1] was “up to 8 weeks” and the “duration of vancomycin release above the MIC for S. aureus” value ([1]; listed as vancomycin) was “over 8 weeks”.

For `NC[C@H]1O[C@H](O[C@H]2[C@H](O)[C@@H](O[C@H]3O[C@H](CO)[C@@H](O)[C@H](N)[C@H]3O)[C@H](N)C[C@@H]2N)[C@H](N)C[C@@H]1O` [tobramycin], the “solubility in polyester polyol” value [2] is listed as “insoluble”, the minimum bactericidal concentration (S. aureus) is listed as 16 µg/mL (≈ 34.2 µM) and the minimum inhibitory concentration (S. aureus) is listed as 4 to 8 µg/mL.

For “BSA-FITC: Bone serum albumin-fluorescein isothiocyanate”, the “release of BSA-FITC” value [3] was less than 20%.

For “PDGF-BB: Platelet-derived growth factor-BB”, the “decreased activity compared with the positive control” value (MC3T3 cells) was 20%, the protein release ([4]; PDGF-BB added to PUR as a powder without the glucose excipient) was “negligible protein release” and the “total release of PDGF-BB” value ([4]; ELISA) was “around 65%”. The “total release of PDGF-BB” value ([4]; I-125 labeling) was “around 85%”.

— US20110236501A1, “INJECTABLE DUAL DELIVERY ALLOGRAPH BONE/POLYMER COMPOSITE FOR TREATMENT OF OPEN FRACTURES” (Vanderbilt University, priority 2007, published 2011)
